Assay [1] is described as follows: Radical scavenging activity (DPPH method). As to conditions: read-out: Antioxid. EC50, 30 min, absorbance 517 nm.
Method: To determine the radical scavenging activity (antioxidant activity) of the novel RIV–BIM hybrids, the DPPH method was performed as previously described in the literature [49]. Working solutions of 20 mg of the ligands were prepared daily in 10 mL of MeOH (with a 10% of DMSO). A working solution of 2 mg DPPH in 100 mL MeOH was prepared daily, and its absorbance was checked to be between 0.75 and 1.00 (a.u.). […] Each one of the calibrate points was kept for 30 min under darkness to allow the ligands to exert their antioxidant effects. After 30 min, an auto-zero was performed with MeOH in both sample and reference cells, using a UV–Vis spectrophotometer. […] The antioxidant activity (%AA) for each point was calculated using the following equation: %AA=ADPPH−Aligand/ADPPH×100
The radical scavenging activity of the RIV–BIM compounds was determined by a spectrophotometric method involving the 2,2-diphenyl-1-picrylhydrazyl (DPPH) free radical [35, 64].
Assay [2] deals with T1, Aβ42 self-aggregation (Homo sapiens, UniProt P05067).
T1 construct: Beta-amyloid protein, fragment 1-42; purchased GeneCust
Nature of the assay: biochemical. To be noted: read-out: Aβ42 Self-Aggreg. Inhib. The class given is biochemical. As for the experimental part: (§1) The inhibition of Aβ42 aggregation and Cu(II)-induced Aβ42 aggregation, carried out by the RIV–BIM hybrids, was studied using a reported method based on the fluorescence emission of thioflavin T [52, 53].
(§2) Solutions of phosphate buffer 0.215 M at pH = 8.00, Na2CO3 300 μM in distilled water, NaOH 250 mM in distilled water, glycine-NaOH 50 mM buffer at pH = 8.50 and CuCl2 240 μM in phosphate buffer were prepared. Stock solutions of […] of the RIV–BIM compounds were prepared in MeOH (with 20% DMSO). Working solutions of 240 μM of the RIV–BIM hybrids were prepared by the proper dilution of their stock solutions with phosphate buffer. A working solution of glycine-NaOH 50 mM buffer at pH = 8.50 containing 5 μM of thioflavin T (ThT) was prepared daily. Aβ42 (GeneCust) was pre-treated with 1,1,1,3,3,3-hexafluoro-2-propanol (HFIP) to obtain a solution of 0.149 mM by brief sonication and vortexing, which was kept covered overnight at room temperature. From the Aβ42 solution, aliquots of 250 μL were placed into Eppendorf tubes under ice and set to evaporate inside a hood at room temperature overnight. When the contents of the Eppendorf tubes were dried, the Aβ42 aliquots were stored at −20 °C until needed. To obtain the Aβ42 working solution, the Aβ42 aliquots were dissolved with a freshly prepared mixture of 69.5 μL of CH3CN/Na2CO3 (300 μM)/NaOH (250 mM) (48.3/48.3/3.4, v/v/v) by brief sonication and vortexing to obtain an Aβ42 solution of 531.24 μM. To this solution, 392.5 μL of phosphate buffer was added, achieving an Aβ42 working solution of 80 μM. To prepare the incubations, three replicates of Aβ42 alone (30 μL Aβ42 80 μM + 30 μL phosphate buffer), Aβ42 with RIV–BIM (30 μL Aβ42 80 μM + 10 μL RIV–BIM 240 μM + 20 μL phosphate buffer), Aβ42 with copper (30 μL Aβ42 80 μM + 10 μL CuCl2 240 μM + 20 μL phosphate buffer) and Aβ42 with copper and RIV–BIM (30 μL Aβ42 80 μM + 10 μL CuCl2 240 μM + 10 μL RIV–BIM 240 μM + 10 μL phosphate buffer) were placed in Eppendorfs. To obtain the blank solutions, a similar number of Eppendorfs, replacing Aβ42 with phosphate buffer, were prepared. Incubations were performed in a water bath at 37 °C with agitation for 24 h. Afterwards, 180 μL of glycine-NaOH 50 mM buffer at pH = 8.50 containing 5 μM of ThT was added to each Eppendorf and then they were vortexed. Finally, 200 μL of solution from each Eppendorf was placed in the wells of a microplate and fluorescence measurements were monitored using a Spectramax Gemini EM (Molecular Devices) fluorimeter with an excitation wavelength of 446 nm and an emission wavelength of 485 nm. Blank signals were subtracted from the corresponding samples. The fluorescence intensity of the Aβ42 + RIV–BIM solution was compared to that of the Aβ42 solution to obtain the inhibition of Aβ42 self-aggregation for each compound. The fluorescence intensity of the Aβ42 + Cu(II) + RIV–BIM solution was compared to that of the Aβ42 + Cu(II) solution to obtain the inhibition of the Cu(II)-induced Aβ42 aggregation for each hybrid.
(§3) The anti-amyloidogenic capacity of the compounds was assessed in vitro using the thioflavin T (ThT) method. To record fluorescence emission, excitation (446 nm) and emission (485 nm) wavelengths were used. When ThT binds to amyloid fibrils, an increase in absorbance and emission of this dye occurs with concomitant red shifts of the respective spectra. The percent of inhibition of Aβ42 aggregation is shown in Table 1, and the assays were performed in the presence of 20 μM of inhibitor. These concentration conditions were used to overcome solubility problems of some compounds in the aqueous phosphate buffer working medium. […]. […]

In assay [3] the test system is Aβ. Further details: method as in PMID 32781220. As to conditions: 50 μM concentration; cited from earlier work.
In assay [4] the target is T2, Cu(II)-induced Aβ42 aggregation (Homo sapiens, UniProt P05067).
T2 construct: Beta-amyloid protein, fragment 1-42; purchased GeneCust
Nature of the assay: Inhibition of Cu(II)-induced Aβ42 aggregation (thioflavin T fluorescence). The class given is biochemical. To be noted: read-out: Aβ42 Cu-Ind. Aggreg. Inhib. As for the experimental part: as §1, §2, §3

Molecules are shown by their SMILES.

Consider three molecules from publication PMC9313321 (Biomedicines, 2022).

T1 sequence (P05067 672-713 limits assumed): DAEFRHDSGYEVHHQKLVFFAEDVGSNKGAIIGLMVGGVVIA
T2 sequence (P05067 672-713 limits assumed): as above

Consider `Cc1c(O)c(=O)ccn1C` [DMHP, reference compound], for which the EC50 in assay [1] was determined as 157 ± 8 µM. For the molecule `Nc1c2c(nc3ccccc13)CCCC2` [Tacrine, reference compound], the inhibition at 20 µM in assay [2] was 28.1%. As to `COc1cc(/C=C/C(=O)CC(=O)/C=C/c2ccc(O)c(OC)c2)ccc1O` [Curcumin, reference compound], the Aβ inhibition in assay [3] is 62%. The results for the inhibition at 20 µM in assay [4] and in assay [2] were 62.7% and 65.7%, respectively.
